From ChEMBL document CHEMBL1201862, “PubChem BioAssay data set” (2004)
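Five concentrations, 48 hours, 96-well plates. GI50 marks 50% less growth.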 Active and inactive are the calls of the source. Rule as the data show it: active = GI50 up to about 1.1 µM and inactive = higher.

Tests used:
Experiment in all cases: DTP human tumour cell line panel, 48 h
786-0 = test system: 786-0
A498 = test system: A498
A549 = test system: A549
ACHN = test system: ACHN
COLO 205 = test system: COLO 205
EKVX = test system: EKVX
HCC 2998 = test system: HCC 2998
HT-29 = test system: HT-29
LOX IMVI = test system: LOX IMVI
MCF7 = test system: MCF7
MDA-MB-231 = test system: MDA-MB-231
MDA-N = test system: MDA-N
Malme-3M = test system: Malme-3M
NCI-H460 = test system: NCI-H460
NCI-H522 = test system: NCI-H522
OVCAR-8 = test system: OVCAR-8
SF-268 = test system: SF-268
SF-539 = test system: SF-539
SNB-75 = test system: SNB-75
UACC-62 = test system: UACC-62

| Compound | GI50 (786-0) | GI50 (A498) | GI50 (A549) | GI50 (ACHN) | GI50 (COLO 205) | GI50 (EKVX) | GI50 (HCC 2998) | GI50 (HT-29) | GI50 (LOX IMVI) | GI50 (MCF7) | GI50 (MDA-MB-231) | GI50 (MDA-N) | GI50 (Malme-3M) | GI50 (NCI-H460) | GI50 (NCI-H522) | GI50 (OVCAR-8) | GI50 (SF-268) | GI50 (SF-539) | GI50 (SNB-75) | GI50 (UACC-62) |
| --- | --- | --- | --- | --- | --- | --- | --- | --- | --- | --- | --- | --- | --- | --- | --- | --- | --- | --- | --- | --- |
| N#Cc1c(N2CCN(c3ccc([N+](=O)[O-])cc3)CC2)[n+]([O-])c2ccc(Cl)cc2[n+]1[O-] | 0.718 µM (active) | 0.575 µM (active) | 2.02 µM (inactive) | 0.789 µM (active) | 3.24 µM (inactive) | 1.71 µM (inactive) | 0.944 µM (active) | 1.31 µM (inactive) | 0.459 µM (active) | 0.973 µM (active) | 1.04 µM (active) | 1.75 µM (inactive) | 2 µM (inactive) | 0.0644 µM (active) | 0.721 µM (active) | 1.11 µM (active) | 1.86 µM (inactive) | 1.15 µM (inactive) | 2.36 µM (inactive) | 1.18 µM (inactive) |
| CC12OOC(c3ccccc31)c1c2ccc2ccccc12 (stereo not given) | 8.53 µM (inactive) | 17.6 µM (inactive) | 3.73 µM (inactive) | 1.73 µM (inactive) | 1.71 µM (inactive) | 5.45 µM (inactive) | 5.05 µM (inactive) | 2.62 µM (inactive) | 2.12 µM (inactive) | 13.2 µM (inactive) | 12 µM (inactive) | 5.53 µM (inactive) | 2.3 µM (inactive) | 2.26 µM (inactive) | 0.843 µM (active) | 6.71 µM (inactive) | 11.2 µM (inactive) | 8.15 µM (inactive) | 8.47 µM (inactive) | 8.26 µM (inactive) |
| O=c1[nH]c(=O)n([C@H]2C[C@H](O)[C@@H](CO)O2)cc1Br [BROXURIDINE] | > 100 µM (inactive) | > 100 µM (inactive) | > 100 µM (inactive) | > 100 µM (inactive) | > 100 µM (inactive) | > 100 µM (inactive) | > 60.3 µM (inactive) | > 100 µM (inactive) | > 97.1 µM (inactive) | 17.7 µM (inactive) | > 100 µM (inactive) | > 100 µM (inactive) | > 85.9 µM (inactive) | > 100 µM (inactive) | > 78.3 µM (inactive) | > 100 µM (inactive) | > 100 µM (inactive) | > 100 µM (inactive) | > 100 µM (inactive) | > 100 µM (inactive) |
| COc1ccc(C(OC(=O)[C@H](O[Si](C)(C)C(C)(C)C)[C@@H](NC(=O)c2ccccc2)c2ccccc2)c2ccc(OC)cc2)cc1 | > 100 µM (inactive) | > 100 µM (inactive) | > 100 µM (inactive) | > 100 µM (inactive) | > 100 µM (inactive) | > 100 µM (inactive) | 68.1 µM (inactive) | > 100 µM (inactive) | > 100 µM (inactive) | 65 µM (inactive) | 48.3 µM (inactive) | > 100 µM (inactive) | > 100 µM (inactive) | > 100 µM (inactive) | > 100 µM (inactive) | > 100 µM (inactive) | > 100 µM (inactive) | > 100 µM (inactive) | > 100 µM (inactive) | > 100 µM (inactive) |
| O=C(O)CC(CC(=O)O)C(=O)O [TRICARBALLYLIC ACID] | > 100 µM (inactive) | > 100 µM (inactive) | > 100 µM (inactive) | > 100 µM (inactive) | > 100 µM (inactive) | > 100 µM (inactive) | > 100 µM (inactive) | > 100 µM (inactive) | > 100 µM (inactive) | > 100 µM (inactive) | > 100 µM (inactive) | > 100 µM (inactive) | > 100 µM (inactive) | > 100 µM (inactive) | > 100 µM (inactive) | > 100 µM (inactive) | > 100 µM (inactive) | > 100 µM (inactive) | > 100 µM (inactive) | > 100 µM (inactive) |
| CCOC(=O)C(N)CSC(=O)NC (stereo not given) | 73.6 µM (inactive) | 236 µM (inactive) | 327 µM (inactive) | 184 µM (inactive) | 78.5 µM (inactive) | 269 µM (inactive) | 271 µM (inactive) | 78.7 µM (inactive) | 40.4 µM (inactive) | 93.5 µM (inactive) | 99.1 µM (inactive) | 39.8 µM (inactive) | 117 µM (inactive) | 92 µM (inactive) | 102 µM (inactive) | 97.7 µM (inactive) | 115 µM (inactive) | > 83.6 µM (inactive) | 243 µM (inactive) | 81.8 µM (inactive) |
| Cc1cc(O)c(O)c(Oc2cc(C)cc(O)c2O)c1 | 18.2 µM (inactive) | > 100 µM (inactive) | 73.1 µM (inactive) | 11.6 µM (inactive) | 20.1 µM (inactive) | 16 µM (inactive) | 32 µM (inactive) | 20.8 µM (inactive) | 4.57 µM (inactive) | 13.1 µM (inactive) | 20.3 µM (inactive) | 18.7 µM (inactive) | > 10 µM (inactive) | 11.1 µM (inactive) | 15 µM (inactive) | 16.2 µM (inactive) | 17.8 µM (inactive) | 23.3 µM (inactive) | 75.7 µM (inactive) | 11.7 µM (inactive) |
| O=C(O)c1ccc(Nc2ccnc3cc(Cl)ccc23)cc1O | > 100 µM (inactive) | > 100 µM (inactive) | > 100 µM (inactive) | > 100 µM (inactive) | > 100 µM (inactive) | > 100 µM (inactive) | 39.6 µM (inactive) | > 100 µM (inactive) | > 100 µM (inactive) | > 100 µM (inactive) | > 100 µM (inactive) | > 100 µM (inactive) | > 100 µM (inactive) | > 100 µM (inactive) | > 100 µM (inactive) | > 100 µM (inactive) | > 100 µM (inactive) | 11.1 µM (inactive) | > 100 µM (inactive) | > 100 µM (inactive) |
| COC(=O)[C@@H]1[C@H]2CC[C@]3(C)[C@@H](OC(C)=O)CC[C@H]3[C@@H]2CC[C@H]1C1(C)SCCS1 | 22.7 µM (inactive) | 57.5 µM (inactive) | 25.1 µM (inactive) | 37.2 µM (inactive) | 13.5 µM (inactive) | 25.1 µM (inactive) | 35.6 µM (inactive) | 15 µM (inactive) | 19.4 µM (inactive) | 27 µM (inactive) | 17.1 µM (inactive) | 22 µM (inactive) | 18.9 µM (inactive) | 29.3 µM (inactive) | 30.5 µM (inactive) | 25 µM (inactive) | 44.4 µM (inactive) | 37 µM (inactive) | 37.2 µM (inactive) | 28.2 µM (inactive) |
| O=C1c2nc3n(c2C(=O)c2c1nc1n2CCC1)CCC3 | 5.25 µM (inactive) | 16 µM (inactive) | 4.39 µM (inactive) | 10.9 µM (inactive) | 5.89 µM (inactive) | 15.6 µM (inactive) | 8.22 µM (inactive) | 3.14 µM (inactive) | 3.1 µM (inactive) | 2.68 µM (inactive) | > 10 µM (inactive) | 1.77 µM (inactive) | 0.904 µM (active) | 1.82 µM (inactive) | 6.44 µM (inactive) | 5.46 µM (inactive) | 8.28 µM (inactive) | 3.64 µM (inactive) | 15.2 µM (inactive) | 1.85 µM (inactive) |
| Cc1ccc2c(c1)-c1c(C#N)c(N)nc(-c3ccc(Cl)cc3)c1CCS2(=O)=O | 6.19 µM (inactive) | 17.2 µM (inactive) | 5.31 µM (inactive) | 8.77 µM (inactive) | 4.55 µM (inactive) | 20.8 µM (inactive) | 6.7 µM (inactive) | 3.61 µM (inactive) | 10.1 µM (inactive) | 5.37 µM (inactive) | 12.3 µM (inactive) | 1.65 µM (inactive) | 5.07 µM (inactive) | 3.85 µM (inactive) | 2.14 µM (inactive) | 14.8 µM (inactive) | 20.1 µM (inactive) | 3.77 µM (inactive) | 3.21 µM (inactive) | 4.37 µM (inactive) |
| CCN1CCC(O)(c2ccc(Oc3ccccc3)cc2)C(C(=O)c2ccc(Oc3ccccc3)cc2)C1 (stereo not given) | 5.5 µM (inactive) | 14 µM (inactive) | 13.5 µM (inactive) | 15.5 µM (inactive) | 13.6 µM (inactive) | 16 µM (inactive) | 6.62 µM (inactive) | 6.98 µM (inactive) | 3.84 µM (inactive) | 3.63 µM (inactive) | 14.6 µM (inactive) | 13.8 µM (inactive) | 17.1 µM (inactive) | 3.85 µM (inactive) | 19.6 µM (inactive) | 17.1 µM (inactive) | 16.3 µM (inactive) | 8.45 µM (inactive) | 14.5 µM (inactive) | 13.2 µM (inactive) |
| Clc1ccc(-c2nc3cc(C45CC6CC(CC(C6)C4)C5)ccc3[nH]2)cc1 | 39.4 µM (inactive) | > 95.7 µM (inactive) | 14.8 µM (inactive) | 51.8 µM (inactive) | 7.43 µM (inactive) | > 94.2 µM (inactive) | 31.7 µM (inactive) | 3.72 µM (inactive) | 18.3 µM (inactive) | 18.5 µM (inactive) | > 100 µM (inactive) | 32.1 µM (inactive) | 24.5 µM (inactive) | 17.6 µM (inactive) | 19.2 µM (inactive) | 28.7 µM (inactive) | > 100 µM (inactive) | 51.6 µM (inactive) | > 100 µM (inactive) | 31.3 µM (inactive) |
